Values after ≈ are worked out from the molar mass of the structure shown.
Key:
[1] = system: Micrococcus flavus; conditions: M. flavus; 0.15 nmol per well; 30°C overnight
Protocol: Agar well diffusion assay against Micrococcus flavus was performed as described previously ([van Heel et al., 2013]). 0.15 nmol of each sample was added to each well. The agar plate was incubated at 30°C overnight, after which the zone of inhibition was measured.
(§1) M. flavus was used as the indicator strain for the agar well diffusion assay, and 0.15 nmol of each sample was added to each well (Figure 3). […] Antimicrobial activity of all compounds was tested by growth inhibition assays against two clinically relevant Gram-positive pathogens, i.e., methicillin resistant S. aureus and vancomycin resistant E. faecium, as well as L. monocytogenes, and L. lactis. […] For this experiment, an activity test was performed against the NSR producing strain L. lactis NZ9000 (pNSR).

[2] = system: Listeria monocytogenes LMG 10470; conditions: LMG 10470
Protocol: (§2) All samples were resuspended in 0.05% aqueous acetic acid solution and the peptide amount was quantified by HPLC according to Schmitt et al. ([Schmitt et al., 2019]). The indicator strains MW2-MRSA, Enterococcus faecium, Listeria monocytogenes, and Lactococcus lactis were first streaked on GM17 plate and cultured overnight. The peptide samples were diluted with 0.05% acetic acid to a concentration of 40–320 μM (depending on the estimated activity of the peptide and the strain tested). The MIC value test was performed according to [Wiegand et al. (2008)].
as §1

[3] = system: MW2-MRSA (Staphylococcus aureus MW2, methicillin resistant); conditions: MW2- ( MW2, methicillin resistant)
Protocol: as §2, §1

[4] = system: L. lactis NZ9000 (pEmpty); conditions: broth microdilution (Wiegand et al. 2008); samples in 0.05% acetic acid; strain with empty plasmid
Protocol: as §2, §1

[5] = system: Enterococcus faecium LMG 16003 (vancomycin resistant, VRE); conditions: LMG 16003
Protocol: as §2, §1

| SMILES | Antimicrobial activity (zone of inhibition) in agar well diffusion assay [1] | MIC value, L. monocytogenes [2] | MIC value, MW2-MRSA [3] | MIC value, L. lactis NZ9000 (pEmpty) [4] | MIC value, E. faecium [5] |
| --- | --- | --- | --- | --- | --- |
| C=C1NC(=O)[C@H]([C@@H](C)CC)NC(=O)[C@H](NC(=O)/C(=C/C)NC(=O)[C@@H](N)[C@@H](C)CC)CSC[C@@H](C(=O)N[C@H]2C(=O)N3CCC[C@H]3C(=O)NCC(=O)N[C@H](C(=O)N[C@@H](CCCCN)C(=O)O)CS[C@H]2C)NC(=O)[C@H](CC(C)C)NC1=O [Nisin AB, reference compound] | not active alone | >320 µM | >320 µM | >40 μM | 160 µM (≈ 184 µg/mL) |
| C=C1NC(=O)[C@H]([C@@H](C)CC)NC(=O)[C@H](NC(=O)/C(=C/C)NC(=O)[C@@H](N)[C@@H](C)CC)CSC[C@@H](C(=O)N[C@H]2C(=O)N3CCC[C@H]3C(=O)NCC(=O)N[C@H](C(=O)N[C@@H](CCCCN)C(=O)N[C@H]3C(=O)NCC(=O)N[C@@H](C)C(=O)N[C@@H](CC(C)C)C(=O)N[C@@H](CCSC)C(=O)NCC(=O)N[C@H](C(=O)N[C@@H](CC(N)=O)C(=O)NCCCn4cc(CCC(=O)N5[C@H](C(=O)N6[C@H](C(=O)N7[C@H](C(=O)N[C@@H](CCCCN)C(=O)N[C@@H](CCCCN)C(=O)N[C@@H](CCCCN)C(=O)O)C[C@@H]8CCCC[C@@H]87)C[C@@H]7CCCC[C@@H]76)C[C@@H]6CCCC[C@@H]65)nn4)CS[C@H]3C)CS[C@H]2C)NC(=O)[C@H](CC(C)C)NC1=O [Nisin ABC + O3K3] | considerably higher than that of nisin ABC | 80 µM | 80 µM | 2.5 μM | 40 µM |

— PMC7715017, “Conjugation of Synthetic Polyproline Moietes to Lipid II Binding Fragments of Nisin Yields Active and Stable Antimicrobials” (Frontiers in Microbiology, 2020)
